From patent US20220372014A1, “NEUROPROTECTIVE COMPOUNDS AND METHODS OF USE THEREOF” (The Johns Hopkins University, priority 2019, published 2022)

What was measured:
MIF = molecular target: T1, MIF (Homo sapiens, UniProt P14174); assay: Nuclease assay of Example 3 (MIF inhibitory activity, Table 4); type: biochemical; parameters: (%) inhibition of MIF nuclease activity: concentration or dose not given beside the values; details: for (%) inhibition of MIF nuclease activity: nuclease assay of Example 3
T1 sequence (P14174 1-115): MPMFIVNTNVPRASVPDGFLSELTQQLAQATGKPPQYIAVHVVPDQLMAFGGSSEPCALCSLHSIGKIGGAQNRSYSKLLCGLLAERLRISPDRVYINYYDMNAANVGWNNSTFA
Procedure, shortened: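 Human genomic DNA (200 ng), pcDNA (200 ng) or PS^30-type substrates (1 μM) were incubated with MIF (0.25-8 μM final) in 10 mM Tris-HCl pH 7.0, 10 mM MgCl2, 1 mM DTT at 37 °C for 1 h (pcDNA, small substrates) or 4 h (genomic DNA). Cleavage was assessed by agarose or PAGE electrophoresis with EtBr staining and chemiluminescent detection of biotin-labelled DNA.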

[1] = test system: HeLa cells or neuronal cells; assay: Cell death assay of Example 3 (MNNG, alamarBlue; protection against parthanatos, Table 4); type: cell-based; details: 1 μM test compound; for (%) inhibition of cell death: MNNG-induced cell death, alamarBlue
Procedure, shortened: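 HeLa or neuronal cells (1×10^4/well) were pretreated 1 h at 37° C with 1 μM compound, exposed to MNNG for 15 min, washed, then re-incubated 18 h with 1 μM compound. Viability was read by alamarBlue fluorescence (ex 560/em 590 nm). Cell death was expressed relative to control wells.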

Structure (SMILES)	(%) inhibition of MIF nuclease activity (MIF) [%]	MIF nuclease activity (MIF)	(%) inhibition of cell death ([1]; 1 µM) [%]	(%) inhibition of cell death [1] [%]	protection against parthanatos (cell death) [1]
COc1ccc(CC[C@H]2OC(=O)[C@@H]3CCCCN3C(=O)C(=O)C(C)(C)COC(=O)C=CCCN(C)C(=O)[C@@H]3CCCN3C(=O)[C@H](COC(C)(C)C)N(C)C(=O)C(c3ccccc3)NC(=O)CN(C)C(=O)COc3cccc2c3)cc1OC (stereo partly shown) [compound 107]	20.0	–	15.1	–	–
COc1ccc(CC[C@H]2OC(=O)[C@@H]3CCCCN3C(=O)C(=O)C(C)(C)COC(=O)C=CCCN(C)C(=O)[C@@H]3CCCN3C(=O)[C@H](COC(C)(C)C)N(C)C(=O)C(c3ccccc3)NC(=O)[C@@H](C)N(C)C(=O)COc3cccc2c3)cc1OC (stereo partly shown) [compound 106]	11.9	–	–	13.1	–
COc1cc(O)c(CC[C@H]2OC(=O)[C@@H]3CCCCN3C(=O)C(=O)C(C)(C)COC(=O)C=CCCN(C)C(=O)[C@@H]3CCCN3C(=O)[C@H](COC(C)(C)C)N(C)C(=O)C(c3ccccc3)NC(=O)[C@H](C)N(C)C(=O)COc3cccc2c3)cc1OC (stereo partly shown) [compound 116]	−4.7	–	–	50.9	–
COc1ccc(CC[C@H]2OC(=O)[C@@H]3CCCCN3C(=O)C(=O)C(C)(C)COC(=O)C=CCCN(C)C(=O)[C@@H]3CCCN3C(=O)[C@H](COC(C)(C)C)N(C)C(=O)C(c3ccccc3)NC(=O)[C@H](C)N(C)C(=O)COc3cccc2c3)cc1OC (stereo partly shown) [compound 102]	59.5	–	77.7	–	–
COc1ccc(CC[C@H]2OC(=O)[C@@H]3CCCCN3C(=O)C(=O)C(C)(C)COC(=O)C=CCCN(C)C(=O)[C@@H](Cc3ccccc3)NC(=O)[C@H](C(C)C)N(C)C(=O)[C@@H](Cc3ccccc3)NC(=O)[C@H](CC(C)C)N(C)C(=O)CCC(=O)Nc3cccc2c3)cc1OC [compound 84]	10.8	–	–	51.0	–
COc1ccc(CC[C@H]2OC(=O)[C@@H]3CCCCN3C(=O)C(=O)C(C)(C)COC(=O)C=CCCN(C)C(=O)[C@@H]3CCCN3C(=O)[C@H](COC(C)(C)C)N(C)C(=O)[C@@H](CC(C)C)NC(=O)CN(C)C(=O)COc3cccc2c3)cc1OC [compound 11]	25.6	–	–	48.9	–
COc1ccc(CC[C@H]2OC(=O)[C@@H]3CCCCN3C(=O)C(=O)C(C)(C)COC(=O)C=CCCN(C)C(=O)[C@@H](C)NC(=O)[C@H](COC(C)(C)C)N(C)C(=O)C(c3ccccc3)NC(=O)CN(C)C(=O)COc3cccc2c3)cc1OC (stereo partly shown) [compound 33]	12.6	–	–	53.4	–
COc1ccc(CC[C@H]2OC(=O)[C@@H]3CCCCN3C(=O)C(=O)C(C)(C)COC(=O)C=CCCN(C)C(=O)[C@@H]3CCCN3C(=O)[C@H](COC(C)(C)C)N(C)C(=O)C(c3ccccc3)NC(=O)[C@H](C)N(C)C(=O)COc3cccc2c3)c(OC)c1OC (stereo partly shown) [compound 124]	−2.7	–	–	55.9	–
COc1ccc(CC[C@H]2OC(=O)[C@@H]3CCCCN3C(=O)C(=O)C(C)(C)COC(=O)C=CCCN(C)C(=O)[C@@H](CC(C)C)NC(=O)[C@H](C(C)C)N(C)C(=O)[C@@H](Cc3ccccc3)NC(=O)[C@H](CC(C)C)N(C)C(=O)CCC(=O)Nc3cccc2c3)cc1OC [compound 82]	8.5	–	–	47.0	–
COc1ccc(CC[C@H]2OC(=O)[C@@H]3CCCCN3C(=O)C(=O)C(C)(C)COC(=O)C=CCCN(C)C(=O)[C@H](CC(C)C)NC(=O)[C@H](COC(C)(C)C)N(C)C(=O)[C@@H](CC(C)C)NC(=O)CN(C)C(=O)COc3cccc2c3)cc1OC [compound 6]	30.8	–	–	46.5	–
COc1ccc(CC[C@H]2OC(=O)[C@@H]3CCCCN3C(=O)C(=O)C(C)(C)COC(=O)C=CCCN(C)C(=O)[C@H](Cc3ccccc3)NC(=O)[C@H](C(C)C)N(C)C(=O)[C@@H](Cc3ccccc3)NC(=O)[C@H](CC(C)C)N(C)C(=O)CCC(=O)Nc3cccc2c3)cc1OC [compound 83]	12.0	–	–	49.8	–

Second part, led by results:

(%) inhibition of MIF nuclease activity (MIF) [%]	MIF nuclease activity (MIF)	Structure (SMILES)	(%) inhibition of cell death ([1]; 1 µM) [%]	(%) inhibition of cell death [1] [%]	protection against parthanatos (cell death) [1]
9.4	–	COc1ccc(CC[C@H]2OC(=O)[C@@H]3CCCCN3C(=O)C(=O)C(C)(C)COC(=O)C=CCCN(C)C(=O)[C@@H]3CCCN3C(=O)[C@H](COC(C)(C)C)N(C)C(=O)C(c3ccccc3)N(C)C(=O)[C@H](C)NC(=O)COc3cccc2c3)cc1OC (stereo partly shown) [compound 137]	–	44.5	–
30.0	–	COc1ccc(CC[C@H]2OC(=O)[C@@H]3CCCCN3C(=O)C(=O)C(C)(C)COC(=O)C=CCCN(C)C(=O)[C@H](C(C)C)NC(=O)[C@H](COC(C)(C)C)N(C)C(=O)C(c3ccccc3)NC(=O)CN(C)C(=O)COc3cccc2c3)cc1OC (stereo partly shown) [compound 44]	–	52.2	–
13.4	–	COc1ccc(CC[C@H]2OC(=O)[C@@H]3CCCCN3C(=O)C(=O)C(C)(C)COC(=O)C=CCCN(C)C(=O)[C@@H]3CCCN3C(=O)[C@H](COC(C)(C)C)N(C)C(=O)[C@H](C)NC(=O)[C@H](C)N(C)C(=O)COc3cccc2c3)cc1OC [compound 100]	–	26.1	–
40.2	–	COc1ccc(CC[C@H]2OC(=O)[C@@H]3CCCCN3C(=O)C(=O)C(C)(C)COC(=O)C=CCCN(C)C(=O)[C@H](Cc3ccc4ccccc4c3)NC(=O)[C@H](Cc3ccccc3)N(C)C(=O)[C@@H](C)NC(=O)CN(C)C(=O)COc3cccc2c3)cc1OC [compound 73]	–	53.0	–
20.9	–	COc1cc(F)c(CCC2OC(=O)[C@@H]3CCCCN3C(=O)C(=O)C(C)(C)COC(=O)C=CCCN(C)C(=O)[C@@H]3CCCN3C(=O)[C@H](COC(C)(C)C)N(C)C(=O)C(c3ccccc3)NC(=O)[C@H](C)N(C)C(=O)COc3cccc2c3)cc1OC (stereo partly shown) [compound 110]	–	59.3	–
9.0	do not inhibit MIF nuclease activity	COc1ccc(CC[C@H]2OC(=O)[C@@H]3CCCCN3C(=O)C(=O)C(C)(C)COC(=O)C=CCCN(C)C(=O)[C@@H]3CCCCN3C(=O)[C@H](COC(C)(C)C)N(C)C(=O)C(c3ccccc3)NC(=O)[C@H](C)N(C)C(=O)COc3cccc2c3)cc1OC (stereo partly shown) [compound 92]	–	72.1	protect against parthanatos
67.0	–	COc1ccc(CC[C@H]2OC(=O)[C@@H]3CCCCN3C(=O)C(=O)C(C)(C)COC(=O)C=CCCN(C)C(=O)[C@H](CC(C)C)NC(=O)[C@H](Cc3ccccc3)N(C)C(=O)[C@@H](C)NC(=O)CN(C)C(=O)COc3cccc2c3)cc1OC [compound 66]	–	71.4	–
−4.7	–	COc1ccc(CC[C@H]2OC(=O)[C@@H]3CCCCN3C(=O)C(=O)C(C)(C)COC(=O)C=CCCN(C)C(=O)[C@@H]3CCCN3C(=O)[C@H](COC(C)(C)C)N(C)C(=O)C(Cc3ccc(O)cc3)NC(=O)[C@H](C)NC(=O)COc3cccc2c3)cc1OC (stereo partly shown) [compound 142]	–	42.5	–
14.7	–	CCC[C@@H]1NC(=O)[C@H](COC(C)(C)C)N(C)C(=O)C(c2ccccc2)NC(=O)[C@H](C)N(C)C(=O)COc2cccc(c2)[C@@H](CCc2ccc(OC)c(OC)c2)OC(=O)[C@@H]2CCCCN2C(=O)C(=O)C(C)(C)COC(=O)C=CCCN(C)C1=O (stereo partly shown) [compound 49]	–	60.0	–
65.0	–	COc1ccc(CC[C@H]2OC(=O)[C@@H]3CCCCN3C(=O)C(=O)C(C)(C)COC(=O)C=CCCN(C)C(=O)[C@@H](C)NC(=O)[C@H](COC(C)(C)C)N(C)C(=O)[C@H](Cc3ccc4ccccc4c3)NC(=O)[C@H](C)N(C)C(=O)COc3cccc2c3)cc1OC [compound 18]	–	78.4	–
15.9	–	COc1ccc(CC[C@H]2OC(=O)[C@@H]3CCCCN3C(=O)C(=O)C(C)(C)COC(=O)C=CCCN(C)C(=O)[C@@H](Cc3ccccc3)NC(=O)[C@H](COC(C)(C)C)N(C)C(=O)C(c3ccccc3)NC(=O)[C@H](C)N(C)C(=O)COc3cccc2c3)cc1OC (stereo partly shown) [compound 54]	–	56.0	–
16.5	–	COc1ccc(CC[C@H]2OC(=O)[C@@H]3CCCCN3C(=O)C(=O)C(C)(C)COC(=O)C=CCCN(C)C(=O)[C@@H](Cc3ccccc3)NC(=O)[C@H](COC(C)(C)C)N(C)C(=O)[C@@H](CC(C)C)NC(=O)CN(C)C(=O)COc3cccc2c3)cc1OC [compound 9]	–	57.4	–
64.9	–	COc1ccc(CC[C@H]2OC(=O)[C@@H]3CCCCN3C(=O)C(=O)C(C)(C)COC(=O)C=CCCN(C)C(=O)[C@@H]3CCCN3C(=O)[C@H](COC(C)(C)C)N(C)C(=O)[C@H](Cc3ccc4ccccc4c3)NC(=O)[C@H](C)N(C)C(=O)COc3cccc2c3)cc1OC [compound 26]	–	71.2	–
11.0	–	COc1ccc(CC[C@H]2OC(=O)[C@@H]3CNCCN3C(=O)C(=O)C(C)(C)COC(=O)C=CCCN(C)C(=O)[C@@H]3CCCN3C(=O)[C@H](COC(C)(C)C)N(C)C(=O)C(c3ccccc3)NC(=O)[C@H](C)N(C)C(=O)COc3cccc2c3)cc1OC (stereo partly shown) [compound 128]	–	47.4	–
